Measured values reported in US8536207B2, “Method for treating a keratoconjunctival disorder” (Santen Pharmaceutical Co., Ltd., priority 2005, dated 2013).

What was measured:
[1] = test system: corneal damage in rats in which the exorbital lacrimal gland was removed; experiment: Test for therapeutic effect on corneal damage using rats in which the exorbital lacrimal gland was removed; type: in vivo, male SD rats; details: for Improvement ratio (%) of corneal damage: fluorescein staining score vs saline control
Protocol: 1. Test for Therapeutic Effect on Corneal Damage Using Rats in which the Exorbital Lacrimal Gland was Removed
Using male SD rats, corneal disorder models were produced in accordance with the method of Fujihara et al. (Invest. Ophthalmol. Vis. Sci. 42 (1): 96-100 (2001)). After the production of the corneal disorder models, the improvement ratio of corneal damage was evaluated by a method (Journal of the eye 21 (1): 87-90 (2004)) modified from the method of Miyata et al. (Japanese Review of Clinical Ophthalmology 48 (2): 183-188 (1994)).
Male SD rats were systemically anesthetized by an administration of Nembutal. Subsequently, the exorbital lacrimal gland of each rat was removed and a corneal damage was induced over a period of 2 months.
A physiological saline solution containing ebselen (25 μM) was instilled into both eyes 6 times a day for 14 days (one group consisting of 8 animals).
A physiological saline solution containing edaravone (200 μM) was instilled into both eyes 6 times a day for 14 days (one group consisting of 8 animals).
A physiological saline solution containing α-lipoic acid (200 μM) was instilled into both eyes 6 times a day for 14 days (one group consisting of 8 animals).
In a control group, physiological saline was instilled into both eyes 6 times a day for 14 days (one group consisting of 8 animals)
Fourteen days after the start of instillation, the damaged parts of the cornea were stained with fluorescein. For each of the upper, middle and lower parts of the cornea, the degree of fluorescein staining was evaluated by scoring according to the criteria shown below and the improvement ratio of corneal damage was calculated from the mean value of the total scores for each of the above-mentioned parts.
1: Scattered staining (punctate staining being separated)
2: Moderate staining (a part of punctate staining being adjacent)
3: Heavy staining (punctate staining being barely separated)
Incidentally, intermediate values (at intervals of 0.5) were set between the respective scores.
By taking the mean value of the scores for the control group (physiological saline) as a standard (improvement ratio: 0%) and according to the calculation equation shown below, the improvement ratios for the ebselen (25 μM) administration group and the edaravone (200 μM) administration group and α-lipoic acid (200 μM) administration group were calculated, respectively, which are shown in Table 1. Incidentally, the mean value of the scores is a mean of those of 8 cases in each group. Improvement ratio (%)={(control)−(administered compound)}/damage degree×100 Damage degree=(control)−(normal eye)

[2] = test system: corneal damage in senescence-accelerated mouse model P10 (SAMP10); experiment: Pharmacological test using SAMP10 (corneal damage, fluorescein staining); type: in vivo; details: for Score of fluorescein staining: mean±standard error, maximum 9 points
Protocol: 2. Pharmacological Test Using SAMP10
Using senescence-accelerated mouse model P10 (hereinafter referred to as SAMP10), an effect of ebselen on a corneal damage was evaluated in accordance with the method of Hirai, Shibagaki et al. (JP-A-2006-104913). Incidentally, as a control animal, SAMR1 with normal senescence was used.
SAMP10 develops a corneal disorder with aging. Accordingly, a corneal damage of female SAMP10 at 16 weeks of age (before a change caused by aging is observed) was evaluated, and then, administration of an ebselen solution or its vehicle was started. At 8 weeks after the start of administration (at 24 weeks of age), the same evaluation was carried out again. In the same manner, a corneal damage of female SAMR1 at 16 weeks of age was evaluated, and thereafter, administration of the above-mentioned vehicle was started. Then, at 8 weeks after the start of administration (at 24 weeks of age), the same evaluation was carried out again.
Ebselen suspensions obtained by suspending it in a 1% (w/v) methyl cellulose aqueous solution (prepared by dissolving methyl cellulose in ultrapure water) at a concentration of 0.45 mg/mL and 4.5 mg/mL respectively were orally administered to female SAMP10 once a day at a dose of 6.67 μL per g of body weight of mouse. The both administration groups were determined to be a 3 mg/kg group and a 30 mg/kg group, respectively. The administration was carried out 5 days a week (Mon, Tue, Wed, Thu, Fri) over a period of 8 weeks. As a control, a 1% (w/v) methyl cellulose aqueous solution was orally administered to SAMP10 in the same manner at a dose of 6.67 μL per g of body weight of mouse. Further, to the control animal, female SAMR1, a 1% (w/v) methyl cellulose aqueous solution was orally administered in the same manner. Incidentally, the number of animals in each group of SAMP10 is 22 eyes (11 mice), and the number of SAMR1 is 16 eyes (8 mice).
The damaged parts of the cornea of SAMP10 and SAMR1 were stained with fluorescein immediately before and at 8 weeks after the start of administration. For each of the upper, middle and lower parts of the cornea, the degree of fluorescein staining was evaluated by scoring according to the evaluation criteria described in “1. Test for therapeutic effect on corneal damage using rat models in which the exorbital lacrimal gland was removed”, and the scoring of the degree of corneal damage (a maximum score of 9 points) was carried out by obtaining the total scores for each of the above-mentioned parts.
Incidentally, the scores in the table are expressed as mean±standard error in each group.

[3] = 200 μM in physiological saline instilled into both eyes 6 times a day for 14 days

SMILES | Improvement ratio (%) of corneal damage ([1]; 25 μM in physiological saline instilled into both eyes 6 times a day for 14 days) | Improvement ratio compared with edaravone and α-lipoic acid ([1]; ebselen 25 μM vs comparators 200 μM, instillation for 14 days) | Staining score compared with the vehicle administration group of SAMP10 ([2]; 3 mg/kg and 30 mg/kg groups, 24 weeks of age, Dunnett's test p < 0.05) | Score of fluorescein staining ([2]; SAMP10, 3 mg/kg group, 16 weeks of age (immediately before start of administration)) | Score of fluorescein staining ([2]; SAMP10, 3 mg/kg oral once a day, 5 days a week for 8 weeks, 24 weeks of age) | Score of fluorescein staining ([2]; SAMP10, 30 mg/kg group, 16 weeks of age (immediately before start of administration)) | Score of fluorescein staining ([2]; SAMP10, 30 mg/kg oral once a day, 5 days a week for 8 weeks, 24 weeks of age) | Improvement ratio (%) of corneal damage [1, 3]
O=c1c2ccccc2[se]n1-c1ccccc1 [Ebselen, 2-phenyl-1,2-benzisoselenazol-3(2H)-one] | 76.5% | more than twice as high | significantly decreased | 2.61 ± 0.38 | 2.95 ± 0.45 | 2.45 ± 0.30 | 2.68 ± 0.33 | 
O=C(O)CCCCC1CCSS1 (stereo in doubt) [α-Lipoic acid, (3R)-1,2-dithiolane-3-pentanoic acid] |  |  |  |  |  |  |  | 30.8%
CC1=NN(c2ccccc2)C(=O)C1 [Edaravone, 3-methyl-1-phenyl-2-pyrazolin-5-one] |  |  |  |  |  |  |  | 36.9%
